Values of other authors, collected in patent US8784886B2, “Coating capsules with active pharmaceutical ingredients” (GlaxoSmithKline, LLC, priority 2006, dated 2014).

Details: gelatin capsules, stored and packaged under the prescribed conditions of temperature and humidity

time without significant loss of potency of the encapsulated contents: ≥ 3 years
SMILES: CC1=C(/C=C/C(C)=C/C=C/C(C)=C/CO)C(C)(C)CCC1 [USP vitamin A, vitamin A]
